Experimental data published in patent US4232148A, “6-Deoxyneamines” (The Upjohn Company, priority 1979, dated 1980).
Values after ≈ are worked out from the molar mass of the structure shown. Read-outs that look alike come from different tables or passages of the source.

How the values were obtained:
Format in all cases: cell-based
[1] = test system: Ps. aeruginosa UC 95; test: standard disc plate assay, zone of inhibition; conditions: 12.5 mm paper discs
From the text: (§1) The compounds of formulas (V, VII, IX, XI, XIV, XVI, and XIX) are active as antibacterials and can be used in various environments to erradicate or control susceptible microorganisms. Tables I and II set forth the in vitro antibacterial test results for representative compounds of the present invention. The results were obtained with a standard disc plate assay using 12.5 mm paper discs.

[2] = test system: E. coli UC 51; test: standard disc plate assay, zone of inhibition; conditions: 12.5 mm paper discs
From the text: as §1

[3] = test system: S. gallinarum UC 265; test: standard disc plate assay, zone of inhibition; conditions: Salmonella enterica, read-out: Zones of Inhibition
From the text: as §1

[4] = test system: S. schottmeulleri UC 126; test: standard disc plate assay, zone of inhibition; conditions: 12.5 mm paper discs
From the text: as §1

[5] = test system: P. vulgaris UC 93; test: standard disc plate assay, zone of inhibition; conditions: 12.5 mm paper discs
From the text: as §1

[6] = test system: B. cereus UC 3145; test: standard disc plate assay, zone of inhibition; conditions: 12.5 mm paper discs
From the text: as §1

[7] = test system: S. lutea UC 130; test: standard disc plate assay, zone of inhibition; conditions: Micrococcus luteus, UC130, read-out: Zones of Inhibition
From the text: as §1

[8] = test system: K. pneumoniae UC 57; test: standard disc plate assay, zone of inhibition; conditions: 12.5 mm paper discs
From the text: as §1

[9] = test system: S. aureus UC 80; test: standard disc plate assay, zone of inhibition; conditions: 12.5 mm paper discs
From the text: as §1

[10] = test system: B. subtilis UC 564; test: standard disc plate assay, zone of inhibition; conditions: 12.5 mm paper discs
From the text: as §1

[11] = test system: Ps. aeruginosa UC 95; test: standard microplate test in BHI Agar, MIC; conditions: Pseudomonas aeruginosa, UC95, 20 h
Protocol: (§2) The compounds VII, XI, XVβ, XVα and XVI were tested in a standard microplate test in BHI (Brain Heart Infusion) Agar at a concentration of 1 mg./ml. and dilutions thereof at 37° incubation temperature. The end points are read at 20 hours. BHI Agar is supplied by Difco Laboratories, Detroit, Mich., U.S.A. and has the following compositions:
(§3) Calf brains, infusion from: 200 gm.
(§4) Beef heart, infusion from: 250 gm.
(§5) Bacto Proteose-peptone, Difco: 10 gm.
(§6) Bacto-Dextrose, Difco: 1 gm.
(§7) Disodium phosphate: 2.5 gm.

[12] = test system: S. typhi UC 215; test: standard microplate test in BHI Agar, MIC; conditions: Salmonella enterica, BHI Agar, 37°, 20 hours
Protocol: as §2, §3, §4, §5, §6, §7

[13] = test system: P. morganii UC 3186; test: standard microplate test in BHI Agar, MIC; conditions: Morganella morganii, UC3186, 20 h
Protocol: as §2, §3, §4, §5, §6, §7

[14] = test system: S. schottmuelleri UC 126; test: standard microplate test in BHI Agar, MIC; conditions: 37°, 20 hours
Protocol: as §2, §3, §4, §5, §6, §7

[15] = test system: P. vulgaris UC 93; test: standard microplate test in BHI Agar, MIC; conditions: Proteus vulgaris, UC93, 37°, 20 hours
Protocol: as §2, §3, §4, §5, §6, §7

[16] = test system: P. mirabilis UC 6671; test: standard microplate test in BHI Agar, MIC; conditions: Proteus mirabilis, UC6671, 37°, 20 hours
Protocol: as §2, §3, §4, §5, §6, §7

[17] = test system: S. faecalis UC 694; test: standard microplate test in BHI Agar, MIC; conditions: Enterococcus faecalis, UC694, 20 h
Protocol: as §2, §3, §4, §5, §6, §7

[18] = test system: K. pneumoniae UC 58; test: standard microplate test in BHI Agar, MIC; conditions: Klebsiella pneumoniae, UC58, 20 h
Protocol: as §2, §3, §4, §5, §6, §7

[19] = test system: E. coli UC 45; test: standard microplate test in BHI Agar, MIC; conditions: Escherichia coli, UC45, 37°, 20 hours, read-out: Minimum Inhibitory Concentration
Protocol: as §2, §3, §4, §5, §6, §7

[20] = test system: S. flexneri UC 143; test: standard microplate test in BHI Agar, MIC; conditions: Shigella flexneri, UC143, 37°, 20 hours
Protocol: as §2, §3, §4, §5, §6, §7

[21] = test system: S. pyogenes UC 152; test: standard microplate test in BHI Agar, MIC; conditions: Streptococcus pyogenes, UC152, 20 h
Protocol: as §2, §3, §4, §5, §6, §7

[22] = test system: S. aureus UC 76; test: standard microplate test in BHI Agar, MIC; conditions: Staphylococcus aureus, UC76, 20 h
Protocol: as §2, §3, §4, §5, §6, §7

[23] = test system: S. marcescens UC 131; test: standard microplate test in BHI Agar, MIC; conditions: Serratia marcescens, UC131, 37°, 20 hours
Protocol: as §2, §3, §4, §5, §6, §7

[24] = test system: S. pneumoniae I UC 41; test: standard microplate test in BHI Agar, MIC; conditions: Streptococcus pneumoniae, UC41, 37°, 20 hours, read-out: Minimum Inhibitory Concentration
Protocol: as §2, §3, §4, §5, §6, §7

[25] = test system: E. coli UC 311; test: standard microplate test in BHI Agar, MIC; conditions: Escherichia coli, UC311, 20 h, read-out: Minimal Inhibitory Concentration
Protocol: as §2, §3, §4, §5, §6, §7

[26] = test system: D. pneumoniae UC 41; test: standard microplate test in BHI Agar, MIC; conditions: Streptococcus pneumoniae, UC41, 37°, 20 hours, read-out: Minimal Inhibitory Concentration
Protocol: as §2, §3, §4, §5, §6, §7

[27] = read-out: Minimal Inhibitory Concentration
[28] = read-out: Minimum Inhibitory Concentration

SMILES: NC[C@H]1O[C@H](O[C@H]2[C@H](O)[C@@H](O)[C@H](N)C[C@@H]2N)[C@H](N)[C@@H](O)[C@@H]1O [Neamine]
- Zones of Inhibition ([1]; 1 mg/ml): 18 mm
- zone of inhibition at 1000 µg/mL ([1]; Pseudomonas aeruginosa, UC95, read-out: Zones of Inhibition, 1 mg/ml): 17 mm
- Zones of Inhibition ([2]; 0.1 mg/ml): 18 mm
- Zones of Inhibition ([2]; 1 mg/ml): 25 mm
- zone of inhibition at 100 µg/mL ([2]; Escherichia coli, UC51, read-out: Zones of Inhibition, 0.1 mg/ml): 19 mm
- zone of inhibition at 1000 µg/mL ([2]; Escherichia coli, UC51, read-out: Zones of Inhibition, 1 mg/ml): 27 mm
- zone of inhibition at 100 µg/mL [3]: 19 mm
- zone of inhibition at 1000 µg/mL [3]: 29 mm
- Zones of Inhibition ([4]; 0.1 mg/ml): 15 mm
- zone of inhibition at 100 µg/mL ([4]; 0.1 mg/ml, read-out: Zones of Inhibition): 16 mm
- Zones of Inhibition ([4]; 1 mg/ml): 23 mm
- zone of inhibition at 1000 µg/mL ([4]; 1 mg/ml, read-out: Zones of Inhibition): 24 mm
- Zones of Inhibition ([5]; 0.1 mg/ml): 15 mm
- Zones of Inhibition ([5]; 1 mg/ml): 28 mm
- zone of inhibition at 100 µg/mL ([5]; Proteus vulgaris, UC93, read-out: Zones of Inhibition, 0.1 mg/ml): 18 mm
- zone of inhibition at 1000 µg/mL ([5]; Proteus vulgaris, UC93, read-out: Zones of Inhibition, 1 mg/ml): 27 mm
- Zones of Inhibition ([6]; 1 mg/ml): 23 mm
- zone of inhibition at 100 µg/mL ([6]; Bacillus cereus, UC3145, read-out: Zones of Inhibition, 0.1 mg/ml): 15 mm
- zone of inhibition at 1000 µg/mL ([6]; Bacillus cereus, UC3145, read-out: Zones of Inhibition, 1 mg/ml): 24 mm
- zone of inhibition at 1000 µg/mL [7]: 17 mm
- Zones of Inhibition ([8]; 0.1 mg/ml): 26 mm
- Zones of Inhibition ([8]; 1 mg/ml): 32 mm
- zone of inhibition at 100 µg/mL ([8]; Klebsiella pneumoniae, UC57, read-out: Zones of Inhibition, 0.1 mg/ml): 27 mm
- zone of inhibition at 1000 µg/mL ([8]; Klebsiella pneumoniae, UC57, read-out: Zones of Inhibition, 1 mg/ml): 34 mm
- Zones of Inhibition ([9]; 0.1 mg/ml): 18 mm
- Zones of Inhibition ([9]; 1 mg/ml): 26 mm
- zone of inhibition at 100 µg/mL ([9]; Staphylococcus aureus, UC80, read-out: Zones of Inhibition, 0.1 mg/ml): 20 mm
- zone of inhibition at 1000 µg/mL ([9]; Staphylococcus aureus, UC80, read-out: Zones of Inhibition, 1 mg/ml): 29 mm
- Zones of Inhibition ([10]; 0.1 mg/ml): 28 mm
- Zones of Inhibition ([10]; 1 mg/ml): 37 mm
- zone of inhibition at 100 µg/mL ([10]; Bacillus subtilis, UC564, read-out: Zones of Inhibition, 0.1 mg/ml): 30 mm
- zone of inhibition at 1000 µg/mL ([10]; Bacillus subtilis, UC564, read-out: Zones of Inhibition, 1 mg/ml): 39 mm
- MIC [11, 27]: > 500 µg/mL
- MIC [11, 28]: > 500 µg/mL
- MIC [12, 27]: 31.2 µg/mL (≈ 96.8 µM)
- MIC [12, 28]: 15.6 µg/mL (≈ 48.4 µM)
- MIC [13, 27]: 31.2 µg/mL (≈ 96.8 µM)
- MIC [13, 28]: 62.5 µg/mL (≈ 194 µM)
- MIC [14, 27]: 15.6 µg/mL (≈ 48.4 µM)
- MIC [14, 28]: 31.2 µg/mL (≈ 96.8 µM)
- MIC [15, 27]: 62.5 µg/mL (≈ 194 µM)
- MIC [15, 28]: 62.5 µg/mL (≈ 194 µM)
- MIC [16, 27]: 250 µg/mL (≈ 776 µM)
- MIC [16, 28]: 62.5 µg/mL (≈ 194 µM)
- MIC [17, 27]: > 500 µg/mL
- MIC [17, 28]: > 500 µg/mL
- MIC [18, 27]: 7.8 µg/mL (≈ 24.2 µM)
- MIC [18, 28]: 15.6 µg/mL (≈ 48.4 µM)
- MIC [19]: 62.5 µg/mL (≈ 194 µM)
- MIC [20, 27]: 125 µg/mL (≈ 388 µM)
- MIC [20, 28]: 62.5 µg/mL (≈ 194 µM)
- MIC [21, 27]: 7.8 µg/mL (≈ 24.2 µM)
- MIC [21, 28]: 7.8 µg/mL (≈ 24.2 µM)
- MIC [22, 27]: 7.8 µg/mL (≈ 24.2 µM)
- MIC [22, 28]: 3.9 µg/mL (≈ 12.1 µM)
- MIC [23, 27]: 250 µg/mL (≈ 776 µM)
- MIC [23, 28]: 250 µg/mL (≈ 776 µM)
- MIC [24]: 62.5 µg/mL (≈ 194 µM)
- MIC [25]: 125 µg/mL (≈ 388 µM)
- MIC [26]: 62.5 µg/mL (≈ 194 µM)
